Test results as given in patent US20260364184A1, “COMPOUND BASED ON OXOISOINDOLINYL-SUBSTITUTED TETRAHYDROPYRIMIDINE-DIONE AND USE THEREOF” (GLUETACS THERAPEUTICS (SHANGHAI) CO., LTD., priority 2023, published 2026).

What was measured:
Type in all cases: cell-based
[1] = Inhibition of RPMI-8226 cell proliferation (CellTiter luminescent viability); conditions: Homo sapiens; Table IA4, IRAK4 inhibitor-based; RPMI-8226, 10 nM, 96 hours; read-out: Inhibition Rate at 10 nM (%)
Experimental: (§1) The tumor cells used herein were cultured in a cell culture medium listed in table 3 at 37 °C in an incubator with 5% CO2. Prior to experimentation, all cell lines used were correctly identified by STR profiling, and tested negative for mycoplasma contamination using a mycoplasma detection kit through routine screenings.
(§2) The IC50 values of the compounds of the present disclosure (including the compounds in Table 1, Table 2, and Examples 1-468) were determined using the CellTiter-Meiluncell Luminescent Cell Viability Assay Kit from Dalian Meilun Biotech Co., Ltd. The detailed procedure is as follows: Tumor cells were seeded in 96-well cell culture plates at the densities specified in Table 4. On the following day, the test compounds of the present disclosure were subjected to serial dilution. The dilution can be performed according to one of the following two methods: • (1) The first dilution method: The test compounds of the present disclosure (including the compounds in Table 1, Table 2, and Examples 1-468) were subjected to 5-fold serial dilutions starting from a highest concentration of 2000 μM, resulting in a total of 9 concentrations from high to low (2000, 400, 80, 16, 3.2, 0.64, 0.128, 0.0256, 0.00512 μM). Subsequently, 0.5 μL of the test compound dilution was transferred into the 96-well plate containing the cells, with each well containing 100 μL of cell culture medium. […] Into the 96-well plate, the diluted test compounds and corresponding detection reagents were added, resulting in final test compound concentrations of 500 nM and 10 nM, respectively. The experimental procedure is described below using the diluted 2 μM test compound as an example.
(§3) 0.5 μL of the aforementioned diluted compound of the present disclosure (including the compounds in Table 1, Table 2, and Examples 1-468) was added to the seeded cells in 100 μL of medium, yielding a final test compound concentration of 10 nM. After the cells were treated with the compounds of the present disclosure for a specified period, the cell viability assay reagent was added to the culture medium according to the kit's instructions to determine cell viability. […] All controls were treated using the same procedure as the compounds of the present disclosure. The growth inhibition curves for the compounds of the present disclosure were plotted using Prism GraphPad software, and the IC50 values were calculated therefrom.

[2] = tested on: Human B-Cell Lymphoma Cells (RPMI-8226); test: as above; conditions: Table IA4, IRAK4 inhibitor-based, RPMI-8226, 500 nM, 96 hours, read-out: Inhibition Rate at 500 nM (%)
Experimental: as §1, §2, §3

IRAK4 = target: T1, IRAK4 (Homo sapiens, UniProt Q9NWZ3); test: Western blot degradation of IRAK4; conditions: hPBMC Cell; 24 hours
T1 construct: expression of target proteins in cells; endogenous in cells
T1 sequence (Q9NWZ3 1-460): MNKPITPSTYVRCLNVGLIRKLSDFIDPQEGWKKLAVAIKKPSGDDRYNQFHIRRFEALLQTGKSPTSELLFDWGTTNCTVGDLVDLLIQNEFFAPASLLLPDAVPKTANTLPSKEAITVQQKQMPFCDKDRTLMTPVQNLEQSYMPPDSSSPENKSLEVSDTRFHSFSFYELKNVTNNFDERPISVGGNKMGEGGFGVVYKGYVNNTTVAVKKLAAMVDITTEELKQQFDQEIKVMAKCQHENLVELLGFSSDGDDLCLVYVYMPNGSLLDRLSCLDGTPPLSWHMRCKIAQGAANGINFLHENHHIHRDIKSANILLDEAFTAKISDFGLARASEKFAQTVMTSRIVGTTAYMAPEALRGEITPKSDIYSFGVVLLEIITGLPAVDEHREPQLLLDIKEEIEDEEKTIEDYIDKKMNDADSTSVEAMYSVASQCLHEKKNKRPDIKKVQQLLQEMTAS
Method in brief: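 Compound-treated cells harvested; lysates denatured 5 min at 95 °C, run on SDS-PAGE, blotted to NC membrane, blocked 1 h RT, probed with antibodies. Densitometry vs DMSO → DC50; target normalised to internal control → % remaining, degradation = 1 − remaining.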

[3] = tested on: Human myeloid monocytic leukemia cell line (MV-4-11); test: Inhibition of MV-4-11 cell proliferation (CellTiter luminescent viability); conditions: Homo sapiens, MV4-11, Table IA3, IRAK4 inhibitor-based, 96 hours; for inhibition at 0.01 µM: MV-4-11, 10 nM, read-out: Inhibition Rate at 10 nM (%); for inhibition at 0.5 µM: MV-4-11, 500 nM, read-out: Inhibition Rate at 500 nM (%)
Method in brief: (§4)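 Cells are seeded in 96-well plates, cultured at 37 °C, 5% CO2, and treated next day with 5-fold serial compound dilutions (stock series from 2000 μM; 0.5 μL into 100 μL medium). Viability is read by CellTiter-Meiluncell luminescence after the set exposure, and IC50 is taken from growth-inhibition curves.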

[4] = tested on: Human Multiple myeloma cell line (MM.1S); test: Inhibition of MM.1S cell proliferation (CellTiter luminescent viability); conditions: Homo sapiens, MM1.S, Table IA5, IRAK4 inhibitor-based, 96 hours
Method in brief: as §4

Row | Structure (SMILES) | Degradation of substrate protein IRAK4 (substrate protein remaining %) (IRAK4) | inhibition at 0.01 µM [1] | inhibition at 0.5 µM [2] | inhibition at 0.01 µM [3] | inhibition at 0.5 µM [3] | inhibition at 0.01 µM ([4]; 10 nM, read-out: Inhibition Rate at 10 nM (%)) | inhibition at 0.5 µM ([4]; 500 nM, read-out: Inhibition Rate at 500 nM (%))
1 | CC(C)(O)c1cc2nc(C3CCN(CC4CCN(c5cccc6c5C(=O)N(N5CCC(=O)NC5=O)C6=O)CC4)CC3)sc2cc1NC(=O)c1cccc(C(F)(F)F)n1 [GT-05818, N-(2-(1-((1-(2-(2,4-dioxotetrahydropyrimidin-1(2H)-yl)-1,3-dioxoisoindolin-4-yl)piperidin-4-yl)methyl)piperidin-4-yl)-5-(2-hydroxypropan-2-yl)benzo[d]thiazol-6-yl)-6-(trifluoromethyl) picolinamide] | A (0%≤substrate protein remaining %≤80%) | 20 to 25% | 10 to 15% | 10 to 20% | 50 to 60% | – | –
2 | O=C1CCN(N2C(=O)c3ccc(N4CCC(N5CCC(CN6CCC(n7cc(NC(=O)c8cnn9ccc(N%10C[C@H]%11C[C@@H]%10CO%11)nc89)c(C(F)F)n7)CC6)CC5)CC4)cc3C2=O)C(=O)N1 [GT-05816, 5-((1R,4R)-2-oxa-5-azabicyclo[2.2.1]heptan-5-yl)-N-(3-(difluoromethyl)-1-(1-((1′-(2-(2,4-dioxotetrahydropyrimidin-1(2H)-yl)-1,3-dioxoisoindolin-5-yl)-[1,4′-bipiperidin]-4-yl)methyl)piperidin-4-yl)-1H-pyrazol-4-yl)pyrazolo[1,5-a]pyrimidine-3-carboxamide] | A (0%≤substrate protein remaining %≤80%) | 30 to 40% | 15 to 20% | -10 to -5% | 50 to 60% | – | –
3 | Cc1cc(-c2nc(C(=O)Nc3cc4oc(N5CCN(CC6CCN(c7cccc8c7C(=O)N(N7CCC(=O)NC7=O)C8=O)CC6)CC5)nc4nc3N3CC[C@@H](O)C3)co2)ccn1 [GT-05806, (R)—N-(2-(4-((1-(2-(2,4-dioxotetrahydropyrimidin-1(2H)-yl)-1,3-dioxoisoindolin-4-yl)piperidin-4-yl)methyl)piperazin-1-yl)-5-(3-hydroxypyrrolidin-1-yl)oxazolo[4,5-b]pyridin-6-yl)-2-(2-methylpyridin-4-yl) oxazole-4-carboxamide] | A (0%≤substrate protein remaining %≤80%) | 20 to 25% | 25 to 30% | 45 to 50% | 80 to 100% | – | –
4 | CC(C)Nc1cc(-n2ccc3cc(C#N)cnc32)ncc1C(=O)NC1CCN(Cc2ccc3c(c2)CN(N2CCC(=O)NC2=O)C3=O)CC1 [GT-05319, 6-(5-cyano-1H-pyrrolo[2,3-b]pyridin-1-yl)-N-(1-((2-(2,4-dioxotetrahydropyrimidin-1(2H)-yl)-1-oxoisoindolin-5-yl)methyl)piperidin-4-yl)-4-((isopropyl)amino) nicotinamide] | A (0%≤substrate protein remaining %≤80%) | 30 to 40% | 40 to 60% | – | – | 30 to 40% | 30 to 40%
5 | O=C1CCN(N2C(=O)c3cc(F)c(N4CCN(C[C@H]5CC[C@H](n6cc(NC(=O)c7cnn8ccc(N9C[C@H]%10C[C@@H]9CO%10)nc78)c(C(F)F)n6)CC5)CC4)cc3C2=O)C(=O)N1 [GT-05239, 5-((1R,4R)-2-oxa-5-azabicyclo[2.2.1]heptan-5-yl)-N-(3-(difluoromethyl)-1-((1r,4R)-4-((4-(2-(2,4-dioxotetrahydropyrimidin-1(2H)-yl)-6-fluoro-1,3-dioxoisoindolin-5-yl)piperazin-1-yl)methyl)cyclohexyl)-1H-pyrazol-4-yl)pyrazolo[1,5-a]pyrimidine-3-carboxamide] | A (0%≤substrate protein remaining %≤80%) | 30 to 40% | 20 to 25% | – | – | – | –

More lines, main results first:

Row | Degradation of substrate protein IRAK4 (substrate protein remaining %) (IRAK4) | Structure (SMILES) | inhibition at 0.01 µM [1] | inhibition at 0.5 µM [2] | inhibition at 0.01 µM [3] | inhibition at 0.5 µM [3] | inhibition at 0.01 µM ([4]; 10 nM, read-out: Inhibition Rate at 10 nM (%)) | inhibition at 0.5 µM ([4]; 500 nM, read-out: Inhibition Rate at 500 nM (%))
6 | A (0%≤substrate protein remaining %≤80%) | O=C1CCN(N2C(=O)c3ccc(N4CC5CCC(C4)N5C[C@H]4CC[C@H](n5cc(NC(=O)c6cnn7ccc(N8C[C@H]9C[C@@H]8CO9)nc67)c(C(F)F)n5)CC4)cc3C2=O)C(=O)N1 [GT-05825, 5-((1R,4R)-2-oxa-5-azabicyclo[2.2.1]heptan-5-yl)-N-(3-(difluoromethyl)-1-((1r,4R)-4-((3-(2-(2,4-dioxotetrahydropyrimidin-1(2H)-yl)-1,3-dioxoisoindolin-5-yl)-3,8-diazabicyclo[3.2.1]octan-8-yl)methyl)cyclohexyl)-1H-pyrazol-4-yl)pyrazolo[1,5-a]pyrimidine-3-carboxamide] | 15 to 20% | 25 to 30% | – | – | – | –
7 | A (0%≤substrate protein remaining %≤80%) | CC(C)(O)c1cc2nc(C3CCN(CC4CCN(c5ccc6c(c5)C(=O)N(N5CCC(=O)NC5=O)C6=O)CC4)CC3)sc2cc1NC(=O)c1cccc(C(F)(F)F)n1 [GT-05819, N-(2-(1-((1-(2-(2,4-dioxotetrahydropyrimidin-1(2H)-yl)-1,3-dioxoisoindolin-5-yl)piperidin-4-yl)methyl)piperidin-4-yl)-5-(2-hydroxypropan-2-yl)benzo[d]thiazol-6-yl)-6-(trifluoromethyl) picolinamide] | 15 to 20% | 25 to 30% | – | – | – | –
8 | A (0%≤substrate protein remaining %≤80%) | COc1cc2nn([C@H]3CC[C@H](CN4CCN(c5cccc6c5C(=O)N(N5CCC(=O)NC5=O)C6=O)CC4)CC3)cc2cc1NC(=O)c1cccc(C(F)(F)F)c1 [GT-08668, N-(2-((1r,4r)-4-((4-(2-(2,4-dioxotetrahydropyrimidin-1(2H)-yl)-1,3-dioxoisoindolin-4-yl)piperazin-1-yl)methyl)cyclohexyl)-6-methoxy-2H-indazol-5-yl)-3-(trifluoromethyl)benzamide] | 20 to 25% | 30 to 40% | – | – | – | –
9 | A (0%≤substrate protein remaining %≤80%) | COc1cc2nn([C@H]3CC[C@H](CN4C5CC4CN(c4ccc6c(c4)C(=O)N(N4CCC(=O)NC4=O)C6=O)C5)CC3)cc2cc1NC(=O)c1cccc(C(F)(F)F)n1 [GT-08653, N-(2-((1r,4r)-4-((3-(2-(2,4-dioxotetrahydropyrimidin-1(2H)-yl)-1,3-dioxoisoindolin-5-yl)-3,6-diazabicyclo[3.1.1]heptan-6-yl)methyl)cyclohexyl)-6-methoxy-2H-indazol-5-yl)-6-(trifluoromethyl) picolinamide] | 15 to 20% | 25 to 30% | – | – | – | –
